Laboratory results: article PMC9069370, “Integrated Design of a Membrane‐Lytic Peptide‐Based Intravenous Nanotherapeutic Suppresses Triple‐Negative Breast Cancer” (Advanced Science, 2022)
Peptide text beside a SMILES is read from it.

Columns and labels:
[1] = tested on: HMLER‐shEcad; experiment: cells; format: cell-based, human; settings: 72 h
From the text: (§1) […], and MCF-10A cells were maintained in MEGM with supplements and growth factors bovine pituitary extract, hydrocortisone, human epidermal growth factor, insulin, and gentamicin/amphotericin-B.

[2] = tested on: MCF‐10A; experiment: cells; format: cell-based, human; settings: 72 h
From the text: as §1

[3] = tested on: HMLER; experiment: cells; format: cell-based, human; settings: 72 h
From the text: as §1

[4] = ANTS/DPX liposome leakage assay; settings: 0.5 mM vesicles, peptide 0-20 µM, 3 h incubation, lipid per peptide; for Peptide Concentration-induced 50 % ANTS/DPX leakage at pH 4.8 (L/P), 3POPC/1POPG Vesicle / Peptide Concentration-induced 50 % ANTS/DPX leakage at pH 4.8 (L/P), POPC Vesicle: HCl-adjusted PBS 1X pH 4.8; for Peptide Concentration-induced 50 % ANTS/DPX leakage at pH 7.4 (L/P), 3POPC/1POPG Vesicle / Peptide Concentration-induced 50 % ANTS/DPX leakage at pH 7.4 (L/P), POPC Vesicle: PBS 1X pH 7.4, high ratio = more potent
Outline: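 Extruded 0.1 µm POPC or POPC/POPG (3:1) vesicles were loaded with 5 mM ANTS and 12.5 mM DPX, gel-filtered, then used at 0.5 mM lipid with titrated peptide at pH 7.4 or pH 4.8 (acidified PBS). Leakage was read at ex 350/em 510 nm after 3 h against 10% Triton maximum, expressed as lipid/peptide ratio for 50% leakage.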

[5] = tested on: U2OS; format: cell-based, human; settings: 72 h
[6] = tested on: HEK293T; experiment: cells; format: cell-based, human; settings: 72 h
[7] = Tryptophan fluorescent binding assay; settings: tryptophan fluorescence; 50 µM peptide, lipid titrated 0-5000 µM; phosphate buffered saline 1X, pH 7.4; values as lipid per peptide
Outline: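 Tryptophan fluorescence was used to follow binding of peptide, fixed at 50 µM, to large unilamellar vesicles of POPC:POPG (3:1 ratio) titrated into phosphate buffered saline (1X, pH 7.4). After 1 h incubation, spectra were taken on a BioTek Cytation 5 reader with excitation at 280 nm and emission at 300 to 450 nm (9 nm slits), averaging three scans.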

Row | SMILES | IC50 [1] [µM] | IC50 [2] [µM] | IC50 [3] [µM] | Peptide Concentration-induced 50 % ANTS/DPX leakage at pH 4.8 (L/P), 3POPC/1POPG Vesicle [4] [L/P] | Peptide Concentration-induced 50 % ANTS/DPX leakage at pH 4.8 (L/P), POPC Vesicle [4] [L/P] | Peptide Concentration-induced 50 % ANTS/DPX leakage at pH 7.4 (L/P), 3POPC/1POPG Vesicle [4] [L/P] | Peptide Concentration-induced 50 % ANTS/DPX leakage at pH 7.4 (L/P), POPC Vesicle [4] [L/P] | IC50 [5] [µM] | IC50 [6] [µM] | Lipid Concentration-induced 50% Peptide Binding (L/P), 3POPC/1POPG Vesicle [7] [L/P] | Lipid Concentration-induced 50% Peptide Binding (L/P), POPC Vesicle [7] [L/P]
1 | CC(C)C[C@H](NC(=O)CN)C(=O)N[C@@H](CC(C)C)C(=O)N[C@@H](Cc1c[nH]cn1)C(=O)N[C@@H](CC(C)C)C(=O)N[C@@H](CC(C)C)C(=O)N[C@@H](Cc1c[nH]cn1)C(=O)N[C@@H](CC(C)C)C(=O)N[C@@H](CC(C)C)C(=O)N[C@@H](CC(C)C)C(=O)N[C@@H](CCCCN)C(=O)N[C@@H](C)C(=O)N[C@@H](C)C(=O)NCC(=O)N[C@@H](Cc1c[nH]c2ccccc12)C(N)=O [HHK] (H-GLLHLLHLLLKAAGW-NH2) | 1.75 ± 0.21 | 5.6 ± 0.14 | 3.15 ± 0.07 | 111 | 149 | 160 | 1133 | 12.7 ± 1.91 | 5.25 ± 1.48 | 0.20 | 0.68
2 | CC(C)C[C@H](NC(=O)CN)C(=O)N[C@@H](CC(C)C)C(=O)N[C@@H](Cc1c[nH]cn1)C(=O)N[C@@H](CC(C)C)C(=O)N[C@@H](CC(C)C)C(=O)N[C@@H](CCCCN)C(=O)N[C@@H](CC(C)C)C(=O)N[C@@H](CC(C)C)C(=O)N[C@@H](CC(C)C)C(=O)N[C@@H](CCC(=O)O)C(=O)N[C@@H](C)C(=O)N[C@@H](C)C(=O)NCC(=O)N[C@@H](Cc1c[nH]c2ccccc12)C(N)=O [HKE] (H-GLLHLLKLLLEAAGW-NH2) | 1.9 ± 0.42 | 7.6 ± 0.42 | 2.7 ± 0.28 | 94 | 173 | 365 | 692 | 16 ± 0.78 | 5.15 ± 0.64 | 0.25 | 0.75
3 | CC(C)C[C@H](NC(=O)CN)C(=O)N[C@@H](CC(C)C)C(=O)N[C@@H](Cc1c[nH]cn1)C(=O)N[C@@H](CC(C)C)C(=O)N[C@@H](CC(C)C)C(=O)N[C@@H](CCCCN)C(=O)N[C@@H](CC(C)C)C(=O)N[C@@H](CC(C)C)C(=O)N[C@@H](CC(C)C)C(=O)N[C@@H](Cc1c[nH]cn1)C(=O)N[C@@H](C)C(=O)N[C@@H](C)C(=O)NCC(=O)N[C@@H](Cc1c[nH]c2ccccc12)C(N)=O [HKH] (H-GLLHLLKLLLHAAGW-NH2) | 3.1 ± 0.57 | 6.1 | 3.45 ± 0.21 | 47 | 193 | 274 | 1077 | 18.9 ± 1.24 | 5.7 ± 0.99 | 0.38 | 0.18
4 | CC(C)C[C@H](NC(=O)CN)C(=O)N[C@@H](CC(C)C)C(=O)N[C@@H](Cc1c[nH]cn1)C(=O)N[C@@H](CC(C)C)C(=O)N[C@@H](CC(C)C)C(=O)N[C@@H](CCCCN)C(=O)N[C@@H](CC(C)C)C(=O)N[C@@H](CC(C)C)C(=O)N[C@@H](CC(C)C)C(=O)N[C@@H](CCCCN)C(=O)N[C@@H](C)C(=O)N[C@@H](C)C(=O)NCC(=O)N[C@@H](Cc1c[nH]c2ccccc12)C(N)=O [HKK] (H-GLLHLLKLLLKAAGW-NH2) | 2.6 ± 0.42 | 2.18 ± 0.39 | 3.4 ± 0.71 | 106 | 106 | 90 | 657 | 12.23 ± 0.11 | 9.5 ± 0.99 | 0.14 | 0.18
5 | CC(C)C[C@H](NC(=O)CN)C(=O)N[C@@H](CC(C)C)C(=O)N[C@@H](CCCCN)C(=O)N[C@@H](CC(C)C)C(=O)N[C@@H](CC(C)C)C(=O)N[C@@H](CCC(=O)O)C(=O)N[C@@H](CC(C)C)C(=O)N[C@@H](CC(C)C)C(=O)N[C@@H](CC(C)C)C(=O)N[C@@H](Cc1c[nH]cn1)C(=O)N[C@@H](C)C(=O)N[C@@H](C)C(=O)NCC(=O)N[C@@H](Cc1c[nH]c2ccccc12)C(N)=O [KEH] (H-GLLKLLELLLHAAGW-NH2) | 2.35 ± 0.07 | 20 | 3.3 ± 0.42 | 68 | 188 | 286 | 995 | 49.2 ± 5.3 | 5.65 ± 0.07 | 0.50 | 1.00
6 | CC(C)C[C@H](NC(=O)CN)C(=O)N[C@@H](CC(C)C)C(=O)N[C@@H](CCCCN)C(=O)N[C@@H](CC(C)C)C(=O)N[C@@H](CC(C)C)C(=O)N[C@@H](CCC(=O)O)C(=O)N[C@@H](CC(C)C)C(=O)N[C@@H](CC(C)C)C(=O)N[C@@H](CC(C)C)C(=O)N[C@@H](CCCCN)C(=O)N[C@@H](C)C(=O)N[C@@H](C)C(=O)NCC(=O)N[C@@H](Cc1c[nH]c2ccccc12)C(N)=O [KEK] (H-GLLKLLELLLKAAGW-NH2) | 1.35 ± 0.07 | 1.55 ± 0.07 | 1.6 ± 0.14 | 126 | 110 | 438 | 1173 | 8.15 ± 0.49 | 3.2 ± 0.14 | 0.50 | 0.47
7 | CC(C)C[C@H](NC(=O)CN)C(=O)N[C@@H](CC(C)C)C(=O)N[C@@H](CCCCN)C(=O)N[C@@H](CC(C)C)C(=O)N[C@@H](CC(C)C)C(=O)N[C@@H](Cc1c[nH]cn1)C(=O)N[C@@H](CC(C)C)C(=O)N[C@@H](CC(C)C)C(=O)N[C@@H](CC(C)C)C(=O)N[C@@H](CCC(=O)O)C(=O)N[C@@H](C)C(=O)N[C@@H](C)C(=O)NCC(=O)N[C@@H](Cc1c[nH]c2ccccc12)C(N)=O [KHE] (H-GLLKLLHLLLEAAGW-NH2) | 2.92 ± 0.17 | 20.9 ± 5.87 | 3.7 ± 0.14 | 156 | 183 | 188 | 981 | 53 ± 2.83 | 26 ± 2.83 | 0.71 | 0.88
8 | CC(C)C[C@H](NC(=O)CN)C(=O)N[C@@H](CC(C)C)C(=O)N[C@@H](CCCCN)C(=O)N[C@@H](CC(C)C)C(=O)N[C@@H](CC(C)C)C(=O)N[C@@H](Cc1c[nH]cn1)C(=O)N[C@@H](CC(C)C)C(=O)N[C@@H](CC(C)C)C(=O)N[C@@H](CC(C)C)C(=O)N[C@@H](Cc1c[nH]cn1)C(=O)N[C@@H](C)C(=O)N[C@@H](C)C(=O)NCC(=O)N[C@@H](Cc1c[nH]c2ccccc12)C(N)=O [KHH] (H-GLLKLLHLLLHAAGW-NH2) | 4.45 ± 0.49 | 10.3 ± 0.49 | 5.2 ± 0.71 | 48 | 227 | 329 | 1153 | 39.8 ± 5.3 | 7.75 ± 0.78 | 0.94 | 3.50
9 | CC(C)C[C@H](NC(=O)CN)C(=O)N[C@@H](CC(C)C)C(=O)N[C@@H](CCCCN)C(=O)N[C@@H](CC(C)C)C(=O)N[C@@H](CC(C)C)C(=O)N[C@@H](Cc1c[nH]cn1)C(=O)N[C@@H](CC(C)C)C(=O)N[C@@H](CC(C)C)C(=O)N[C@@H](CC(C)C)C(=O)N[C@@H](CCCCN)C(=O)N[C@@H](C)C(=O)N[C@@H](C)C(=O)NCC(=O)N[C@@H](Cc1c[nH]c2ccccc12)C(N)=O [KHK] (H-GLLKLLHLLLKAAGW-NH2) | 1.4 ± 0.14 | 1.81 ± 0.05 | 2.59 ± 0.92 | 53 | 140 | 193 | 1153 | 12.9 ± 1.24 | 3.55 ± 0.78 | 0.38 | 0.17
